Measurements taken from US7053107B2, “Indazole compounds and pharmaceutical compositions for inhibiting protein kinases, and methods for their use” (Agouron Pharmaceuticals, Inc., priority 2002, dated 2006).
Like-named read-outs stand apart in the source and are kept apart here.

Legend:
[1] = molecular target: T1, LCK (Homo sapiens, UniProt P06239, C224D/P223M); test: Lymphocyte-Specific Protein-Tyrosine Kinase (LCK) spectrophotometric assay; format: biochemical; settings: 1 μM compound; read-out: LckP* % inhibit @1 μM
T1 construct: starting from amino acid residue 223 to the end of the protein at residue 509; made in house; host or cells: insect cells

[2] = test system: human umbilical vein endothelial cells (HUVEC); test: HUVEC Proliferation Assay (VEGF-stimulated); format: cell-based
Procedure: (§1) This assay determines the ability of a test compound to inhibit the growth factor-stimulated proliferation of human umbilical vein endothelial cells (“HUVEC”). HUVEC cells (passage 3–4, Clonetics, Corp.) were thawed into EGM2 culture medium (Clonetics Corp) in T75 flasks. Fresh EGM2 medium was added to the flasks 24 hours later. Four or five days later, cells were exposed to another culture medium (F12K medium supplemented with 10% fetal bovine serum (FBS), 60 μg/mL endothelial cell growth supplement (ECGS), and 0.1 mg/mL heparin). Exponentially-growing HUVEC cells were used in experiments thereafter. Ten to twelve thousand HUVEC cells were plated in 96-well dishes in 100 μl of rich, culture medium (described above). The cells were allowed to attach for 24 hours in this medium. The medium was then removed by aspiration and 105 μl of starvation media (F12K+1% FBS) was added to each well. After 24 hours, 15 μl of test agent dissolved in 1% DMSO in starvation medium or this vehicle alone was added into each treatment well; the final DMSO concentration was 0.1%. One hour later, 30 μl of VEGF (30 ng/mL) in starvation media was added to all wells except those containing untreated controls; the final VEGF concentration was 6 ng/mL. Cellular proliferation was quantified 72 hours later by MTT dye reduction, at which time cells were exposed for 4 hours MTT (Promega Corp.). Dye reduction was stopped by addition of a stop solution (Promega Corp.) and absorbance at 595λ was determined on a 96-well spectrophotometer plate reader.
(§2) IC50 values were calculated by curve-fitting the response of A^595 to various concentrations of the test agent; typically, seven concentrations separated by 0.5 log were employed, with triplicate wells at each concentration. For screening compound library plates, one or two concentrations (one well per concentration) were employed, and the % inhibition was calculated by the following formula: % inhibition=(control−test)[…](control−starvation) where
control=A^595 when VEGF is present without test agent
test=A^595 when VEGF is present with test agent
starvation=A^595 when VEGF and test agent are both absent.

[3] = Human Liver Microsome (HLM) Assay; format: in vitro ADME; settings: @0.5 h
Procedure: Compound metabolism in human liver microsomes was measured by LC-MS analytical assay procedures as follows. First, human liver microsomes (HLM) were thawed and diluted to 5 mg/mL with cold 100 mM potassium phosphate (KPO4) buffer. Appropriate amounts of KPO4 buffer, NADPH-regenerating solution (containing B-NADP, glucose-6-phosphate, glucose-6-phosphate dehydrogenase, and MgCl2), and HLM were preincubated in 13×100 mm glass tubes at 37 C. for 10 min. (3 tubes per test compound—triplicate). Test compound (5 µM final) was added to each tube to initiate reaction and was mixed by gentle vortexing, followed by incubation at 37° C. […] Samples were centrifuged at 4000 rpm for 20 min. to precipitate proteins and salt (Beckman Allegra 6KR, S/N ALK98DO6, #634). Supernatant was transferred to new 12×75 mm glass tubes and evaporated by Speed-Vac centrifugal vacuum evaporator. Samples were reconstituted in 200 μL 0.1% formic acid/acetonitrile (90/10) and vortexed vigorously to dissolve. The samples were then transferred to separate polypropylene microcentrifuge tubes and centrifuged at 14000×g for 10 min. (Fisher Micro 14, S/N M0017580). […]
The combined compound samples were injected into the LC-MS system, composed of a Hewlett-Packard HP 1100 diode array HPLC and a Micromass Quattro II triple quadruple mass spectrometer operating in positive electrospray SIR mode (programmed to scan specifically for the molecular ion of each test compound. Each test compound peak was integrated at each timepoint. […]

[4] = test system: HUVEC; test: HUVEC + albumin proliferation; format: cell-based; settings: Homo sapiens, 72 h, with albumin
Procedure: as §1, §2

[5] = molecular target: T2, FGF-R1 (Homo sapiens, UniProt P11362, C488A/C584S/L457V); test: Fibroblast Growth Factor (FGF-R) spectrophotometric assay; format: biochemical; settings: 1 μM compound; read-out: FGF-P % inhibit @1 μM
T2 construct: starting from the endogenous methionine residue 456 to glutamate 766; made in house; host or cells: baculovirus vector expression system
Text: The intracellular kinase domain of human FGF-R1 was expressed using the baculovirus vector expression system starting from the endogenous methionine residue 456 to glutamate 766, according to the residue numbering system of Mohammadi et al., Mol. Cell. Biol., 16, 977–989 (1996). In addition, the construct also has the following 3 amino acid substitutions: L457V, C488A, and C584S.
(§3) The production of ADP from ATP that accompanies phosphoryl transfer was coupled to oxidation of NADH using phosphoenolpyruvate (PEP) and a system having pyruvate kinase (PK) and lactic dehydrogenase (LDH). The oxidation of NADH was monitored by following the decrease of absorbance at 340 nm (e340=6.22 cm^−1 mM^−1) using a Beckman DU 650 spectrophotometer. Assay conditions for phosphorylated VEGF-R2A50 (indicated as FLVK-P in the tables below) were the following: 1 mM PEP; 250 μM NADH; 50 units of LDH/mL; 20 units of PK/mL; 5 mM DTT; 5.1 mM poly(E4Y1); 1 mM ATP; and 25 mM MgCl2 in 200 mM HEPES, pH 7.5. Assay conditions for unphosphorylated VEGF-R2Δ50 (indicated as FLVK in the tables) were the following: 1 mM PEP; 250 μM NADH; 50 units of LDH/mL; 20 units of PK/mL; 5 mM DTT; […]; 3 mM ATP; and 60 mM MgCl2 and 2 mM MnCl2 in 200 mM HEPES, pH 7.5. Assays were initiated with 5 to 40 nM of enzyme. Ki values were determined by measuring enzyme activity in the presence of varying concentrations of test compounds. The data were analyzed using Enzyme Kinetic and Kaleidagraph software.
The spectrophotometric assay was carried out as described above for VEGF-R2, except for the following changes in concentration: FGF-R=50 nM, ATP=2 mM, and poly(E4Y1)=15 mM.

[6] = molecular target: T3, unphosphorylated VEGF-R2Δ50 (Homo sapiens, UniProt P35968, DEL940-989/E990V); test: VEGF-R2 coupled spectrophotometric assay, unphosphorylated construct (FLVK); format: biochemical; settings: % inhibition at 50 nM compound; read-out: FLVK Ki % inh @ 50 nM
T3 construct: VEGF-R2Δ50 contains residues 806–939 and 990–1171; made in house; host or cells: baculovirus/insect cell system
Text: This construct determines the ability of a test compound to inhibit tyrosine kinase activity. A construct (VEGF-R2Δ50) of the cytosolic domain of human vascular endothelial growth factor receptor 2 (VEGF-R2) lacking the 50 central residues of the 68 residues of the kinase insert domain was expressed in a baculovirus/insect cell system. Of the 1356 residues of full-length VEGF-R2, VEGF-R2Δ50 contains residues 806–939 and 990–1171, and also one point mutation (E99OV) within the kinase insert domain relative to wild-type VEGF-R2. Autophosphorylation of the purified construct was performed by incubation of the enzyme at a concentration of 4 μM in the presence of 3 mM ATP and 40 mM MgCl2 in 100 mM HEPES, pH 7.5, containing 5% glycerol and 5 mM DTT, at 4° C. for 2 h. […] See Parast et al., Biochemistry, 37,16788–16801 (1998).
as §3

[7] = Mouse PK Assay; format: in vivo; settings: female, B6, plasma
Procedure: The pharmacokinetics (e.g., absorption and elimination) of drugs in mice were analyzed using the following experiment. Test compounds were formulated as a solution or suspension in a 30:70 (PEG 400: acidified H2O) vehicle or as a suspension in 0.5% CMC. This was administered orally (p.o.) and intraperitoneally (i.p.) at variable doses to two distinct groups (n=4) of B6 female mice. Blood samples were collected via an orbital bleed at time points: 0 hour (pre-dose), 0.5 h, 1.0 h, 2.0 h, and 4.0 h, and 7.0 h post dose. Plasma was obtained from each sample by centrifugation at 2500 rpm for 5 min. Test compound was extracted from the plasma by an organic protein precipitation method. For each time bleed 50 μL of plasma was combined with 1.0 mL of acetonitrile, vortexed for 2 min. and then spun at 4000 rpm for 15 min. to precipitate the protein and extract out the test compound. […] Test-compound plasma concentrations (μg/mL) were determined by a comparison to standard curve (peak area vs. conc. μg/mL) using known concentrations of test compound extracted from plasma samples in the manner described above. […] The quantitated test samples were plotted for visual display using Kalidagraph software and their pharmacokinetic parameters were determined using WIN NONLIN software. […]

[8] = molecular target: T4, PDGFRβ (Homo sapiens, UniProt P09619); test: PAE-PDGFRβ Phosphorylation in PAE-PDGFRB Cells Assay; format: cell-based; settings: PAE cells overexpressing human PDGFRβ; read-out: PAE PDGFR autophos IC50
T4 construct: expressed in transfected cells; host or cells: porcine aorta endothelial (PAE) cells
Procedure: This assay determines the ability of a test compound to inhibit the autophosphorylation of PDGFRβ in porcine aorta endothelial (PAE)-PDGFRβ cells. PAE cells that overexpress human PDGFRβ were used in this assay. The cells were cultured in Ham's F12 media supplemented with 10% fetal bovine serum (FBS) and 400 ug/ml G418. Twenty thousands cells were seeded in each well of a 96-well plate in 50 μL of growth media and allowed to attach for 6 hours at 37° C. Cells were then exposed to the starvation media (Ham's F12 media supplemented with 0.1% FBS) for 16 hours. After the starvation period was over, 10 μL of test agent in 5% DMSO in starvation media were added to the test wells and 10 μL of the vehicle (5% DMSO in starvation media) were added into the control wells. The final DMSO concentration in each well was 0.5%. Plates were incubated at 37° C. for 1 hour and the cells were then stimulated with 1 μg/mL PDGF-BB (R & D System) in the presence of 2 mM Na3VO4 for 8 minutes. The cells were washed once with 1 mm Na3VO4 in HBSS and lysed by adding 50 μL per well of lysis buffer. One hundred μL of dilution buffer were then added to each well and the diluted cell lysate was transferred to a 96-well goat ant-rabbit coated plate (Pierce), which was pre-coated with Rabbit anti Human PDGFRβ antibody (Santa Cruz). The plates were incubated at room temperature for 2 hours and washed seven times with 1% Tween 20 in PBS. HRP-PY20 (Santa Cruz) was diluted and added to the plate for a 30-minute incubation. Plates were then washed again and TMB peroxidase substrate (Kirkegaard & Perry) was added for a 10-minute incubation. One hundred μL of 0.09 N H2SO4 was added into each well of the 96-well plate to stop the reaction. Phosphorylation status was assessed by spectrophotometer reading at 450 nm. IC50 values were calculated by curve fitting using a four-parameter analysis.

T3 sequence (P35968 with tags, fused parts or gaps DEL940-989/E990V limits assumed): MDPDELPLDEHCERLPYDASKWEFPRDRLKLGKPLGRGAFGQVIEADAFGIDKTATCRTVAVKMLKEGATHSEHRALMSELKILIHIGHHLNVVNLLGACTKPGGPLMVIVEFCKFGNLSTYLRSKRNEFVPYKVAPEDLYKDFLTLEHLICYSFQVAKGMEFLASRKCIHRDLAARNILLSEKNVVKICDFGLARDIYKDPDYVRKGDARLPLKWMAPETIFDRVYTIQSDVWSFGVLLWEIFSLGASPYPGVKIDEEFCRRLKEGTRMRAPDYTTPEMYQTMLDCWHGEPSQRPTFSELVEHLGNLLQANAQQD
T1 sequence (P06239 223-509 P223M/C224D): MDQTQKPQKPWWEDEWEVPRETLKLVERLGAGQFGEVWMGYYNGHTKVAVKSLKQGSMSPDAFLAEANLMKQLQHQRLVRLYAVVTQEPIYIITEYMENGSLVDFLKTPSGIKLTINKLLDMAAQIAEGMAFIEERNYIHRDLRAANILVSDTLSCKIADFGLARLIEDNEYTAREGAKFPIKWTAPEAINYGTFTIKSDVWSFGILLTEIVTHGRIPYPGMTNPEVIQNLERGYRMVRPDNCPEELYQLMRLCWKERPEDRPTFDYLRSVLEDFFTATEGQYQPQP
T2 sequence (P11362 456-766 L457V/C488A/C584S): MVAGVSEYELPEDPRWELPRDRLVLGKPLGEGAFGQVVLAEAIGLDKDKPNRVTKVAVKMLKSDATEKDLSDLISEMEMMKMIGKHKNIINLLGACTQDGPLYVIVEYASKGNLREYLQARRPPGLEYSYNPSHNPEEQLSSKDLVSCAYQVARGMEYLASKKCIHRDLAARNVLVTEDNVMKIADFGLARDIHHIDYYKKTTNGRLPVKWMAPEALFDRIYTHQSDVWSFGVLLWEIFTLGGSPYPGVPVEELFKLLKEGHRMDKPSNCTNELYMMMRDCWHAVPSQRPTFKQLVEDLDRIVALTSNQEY
T4 sequence (P09619 33-1106): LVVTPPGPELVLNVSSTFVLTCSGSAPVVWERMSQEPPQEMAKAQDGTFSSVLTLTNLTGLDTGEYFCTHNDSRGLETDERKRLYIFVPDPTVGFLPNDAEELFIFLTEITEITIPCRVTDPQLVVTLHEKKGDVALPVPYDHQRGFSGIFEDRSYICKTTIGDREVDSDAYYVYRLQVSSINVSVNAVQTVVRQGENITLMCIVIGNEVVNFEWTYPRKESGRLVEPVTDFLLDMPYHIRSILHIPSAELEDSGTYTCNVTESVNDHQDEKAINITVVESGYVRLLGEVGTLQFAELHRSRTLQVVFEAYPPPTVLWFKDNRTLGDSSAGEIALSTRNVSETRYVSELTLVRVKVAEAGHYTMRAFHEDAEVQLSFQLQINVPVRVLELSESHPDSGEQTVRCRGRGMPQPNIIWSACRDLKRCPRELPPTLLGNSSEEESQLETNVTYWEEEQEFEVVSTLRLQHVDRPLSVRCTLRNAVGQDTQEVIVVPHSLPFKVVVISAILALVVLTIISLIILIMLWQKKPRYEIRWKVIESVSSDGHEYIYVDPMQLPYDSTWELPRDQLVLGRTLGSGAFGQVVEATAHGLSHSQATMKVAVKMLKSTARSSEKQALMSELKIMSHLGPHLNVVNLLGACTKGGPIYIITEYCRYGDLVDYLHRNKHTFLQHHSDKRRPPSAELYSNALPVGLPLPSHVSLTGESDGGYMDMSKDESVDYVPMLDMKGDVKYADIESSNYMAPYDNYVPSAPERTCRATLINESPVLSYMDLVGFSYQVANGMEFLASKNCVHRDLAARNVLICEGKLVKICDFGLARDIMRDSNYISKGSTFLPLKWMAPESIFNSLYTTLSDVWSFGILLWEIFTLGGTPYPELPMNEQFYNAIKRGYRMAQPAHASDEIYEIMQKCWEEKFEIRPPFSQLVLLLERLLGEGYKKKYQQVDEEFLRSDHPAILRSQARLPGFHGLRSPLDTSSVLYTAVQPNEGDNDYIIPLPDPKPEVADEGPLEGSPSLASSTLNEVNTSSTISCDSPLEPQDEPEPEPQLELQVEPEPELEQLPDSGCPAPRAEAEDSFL

| SMILES | inhibition at 1 µM [1] [%] | IC50 [2] [nM] | % remaining (HLM) [3] | IC50 [4] [nM] | inhibition at 1 µM [5] [%] | inhibition at 0.05 µM [6] [%] | AUC ([7]; ip, intraperitoneal, read-out: Mouse pK, AUC, ip) [ng·h/mL] | AUC ([7]; oral, read-out: Mouse pK, AUC, po) [ng·h/mL] | IC50 [8] [nM] |
| --- | --- | --- | --- | --- | --- | --- | --- | --- | --- |
| CC(C)ONC(=O)c1ccccc1Nc1ccc2c(/C=C/c3ccccn3)n[nH]c2c1 [Example 3(c), N-Isopropoxy-2-[3-((E)-2-pyridin-2-yl-vinyl)-1H-indazol-6-ylamino]-benzamide] | 9 | 0.43 | 46@0.5 h % | 9.2 | 83 | 91 |  |  |  |
| COC(=O)C(C(=O)OC)c1ccc(Cl)cc1[N+](=O)[O-] [Example 1(a), 2-(4-Chloro-2-nitro-phenyl)-malonic acid dimethyl ester] |  |  |  |  |  |  | 690 | 330 |  |
| Cc1ccnc(/C=C/c2n[nH]c3cc(Nc4ccccc4C(=O)NCc4ccncc4)ccc23)c1 [Example 38, 2-{3-[2-(4-Methyl-pyridin-2-yl)-vinyl]-1H-indazol6-ylamino}-N-pyridin-4-ylmethyl-benzamide] |  |  |  | 0.68 |  | 75 |  |  | 2 |
| Cn1cccc1C(=O)NNC(=O)c1ccccc1Nc1ccc2c(/C=C/c3ccccn3)n[nH]c2c1 [Example 3(f)] | 41 |  |  | > 100 | 60 | 95 |  |  |  |
